Measurements from patent US20250026746A1, “ENHANCERS OF PARTICULATE GUANYLYL CYCLASE RECEPTOR A” (Mayo Foundation for Medical Education and Research, priority 2021, published 2025).
Structures can show the parent of a compound that is named as a salt.

Assays:
[1] = target: T1, extracellular domain human GC-A recombinant protein (Homo sapiens, UniProt P16066); assay: Surface plasmon resonance binding to GC-A receptor; details: acetate salt; for Kd: SPR 25° C., 1:1 Langmuir model
T1 construct: extracellular domain human GC-A recombinant protein; purchased My BioSource, Inc. San Diego, CA
T1 sequence (P16066 33-473 limits assumed): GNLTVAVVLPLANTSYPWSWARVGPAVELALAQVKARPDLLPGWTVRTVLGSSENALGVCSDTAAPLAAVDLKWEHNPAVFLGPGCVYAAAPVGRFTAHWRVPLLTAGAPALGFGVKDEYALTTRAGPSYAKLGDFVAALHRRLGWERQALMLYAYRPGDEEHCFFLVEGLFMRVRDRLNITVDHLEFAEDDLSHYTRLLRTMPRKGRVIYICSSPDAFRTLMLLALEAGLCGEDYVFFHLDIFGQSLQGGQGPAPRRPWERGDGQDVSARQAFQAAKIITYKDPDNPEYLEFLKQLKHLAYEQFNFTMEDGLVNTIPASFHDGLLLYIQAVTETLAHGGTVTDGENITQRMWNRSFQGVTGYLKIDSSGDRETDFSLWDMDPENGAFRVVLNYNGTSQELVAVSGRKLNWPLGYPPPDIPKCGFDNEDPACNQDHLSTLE
Method: Surface plasmon resonance (SPR) measurements were performed at 25° C. on a BI-4500 SPR instrument (Biosensing Instrument Inc. Tempe AZ). As per the instructions by the Biosensing instrument manual, 400 mM nickel sulfate in deionized water was linked to the Ni-NTA sensor chip (Biosensing Instrument Inc. Tempe AZ. Then 30 μg/ml of extracellular domain human GC-A recombinant protein (My BioSource, Inc. San Diego, CA), containing 12 histidine residues on the C-terminus, was then immobilized to the nickel sulfate on the Ni-NTA sensor chip. After, the chip was washed with buffer (150 mM NaCl, 50 μM EDTA pH 7.4, 0).1% DMSO), then 100 μL of sequentially diluted Compound 3 acetate salt (0.125, 0.25, 0.5, 1, 2 μM), Compound 1 acetate salt (6.25, 12.5, 25, 50, 100 nM) or Compound 2 acetate salt (0.125, 0.25, 0.5, 1, 2 μM) was injected at the rate of 60 ul/min and allowed to dissociate for 60 seconds. Data was collected as sensorgrams. Binding kinetics were derived from sensorgrams using BI-Data Analysis Program (Biosensing Instrument, Tempe AZ). Affinity analysis of GC-A with Compound 3, Compound 2 and/or Compound 1 interactions were performed using a 1:1 Langmuir binding model. Two series were performed for all studies.

[2] = target: T2, human GC-A (Homo sapiens, UniProt P16066); assay: EC50 and Emax cGMP determination, HTRF, human GC-A overexpressing HEK293 cells; format: cell-based; details: for EC50: EC20 ANP, read-out: EC50 cGMP activities; for EMax cGMP activities / Emax: 100% = saturating ANP (10 nM), 0% = EC20 ANP; for Emax: HEK293, HEK293 GC-A cells, read-out: EMax cGMP activities
T2 construct: host or cells: HEK293
T2 sequence (P16066 33-1061): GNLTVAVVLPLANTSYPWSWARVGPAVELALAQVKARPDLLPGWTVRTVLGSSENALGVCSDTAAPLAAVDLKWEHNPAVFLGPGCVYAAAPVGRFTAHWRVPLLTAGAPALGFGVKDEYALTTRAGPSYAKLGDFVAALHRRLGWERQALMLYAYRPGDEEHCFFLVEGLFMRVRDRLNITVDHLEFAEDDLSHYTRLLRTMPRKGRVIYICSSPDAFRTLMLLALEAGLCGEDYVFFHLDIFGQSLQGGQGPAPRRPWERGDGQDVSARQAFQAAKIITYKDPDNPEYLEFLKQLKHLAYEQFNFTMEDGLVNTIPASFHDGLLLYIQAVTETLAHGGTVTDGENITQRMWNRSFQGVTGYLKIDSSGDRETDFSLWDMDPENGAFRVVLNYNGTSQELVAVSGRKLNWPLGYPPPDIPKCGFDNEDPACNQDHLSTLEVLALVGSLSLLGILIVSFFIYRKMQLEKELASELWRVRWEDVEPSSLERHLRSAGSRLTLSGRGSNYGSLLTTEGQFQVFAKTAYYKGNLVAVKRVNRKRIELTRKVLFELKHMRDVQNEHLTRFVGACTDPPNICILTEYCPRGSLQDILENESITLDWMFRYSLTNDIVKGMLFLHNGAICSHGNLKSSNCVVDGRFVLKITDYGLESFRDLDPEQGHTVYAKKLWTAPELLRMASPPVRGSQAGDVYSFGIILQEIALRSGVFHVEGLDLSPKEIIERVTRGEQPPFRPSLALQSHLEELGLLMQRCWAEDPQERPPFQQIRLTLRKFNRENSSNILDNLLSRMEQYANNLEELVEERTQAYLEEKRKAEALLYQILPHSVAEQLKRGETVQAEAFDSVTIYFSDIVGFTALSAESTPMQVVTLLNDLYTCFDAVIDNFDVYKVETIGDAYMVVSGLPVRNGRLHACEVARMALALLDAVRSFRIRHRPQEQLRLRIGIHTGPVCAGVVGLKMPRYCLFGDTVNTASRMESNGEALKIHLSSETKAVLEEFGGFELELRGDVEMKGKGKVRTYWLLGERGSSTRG
T2 sequence (P01160 124-151 partner limits assumed): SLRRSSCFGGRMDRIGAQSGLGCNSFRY
Method: Test compounds were evaluated for potentiation of cGMP in human GC-A overexpressing HEK293 cells (Cardiorenal Research Laboratory, Mayo Clinic). Test compounds at 10 mM DMSO stock concentration were dispensed into 384 well small volume white plates using Tecan D300e digital dispenser starting at 5 μM or 40 μM concentration and diluted 2-fold for 10-point concentration response. Wells were backfilled with DMSO such that the final concentration of DMSO in all wells was maintained at 0.3% DMSO. Atrial natriuretic peptide (ANP, Phoenix Pharmaceuticals) ANP was prepared as working stock aliquots at 5 μM in phosphate-buffered solution (PBS) with 0.1% bovine serum albumin (BSA) and diluted to […] in buffer plus Tween20 at 0.3% and added to plates to a final concentration equivalent to EC20 ANP in the cGMP assay. GC-A cells in suspension ([…]) in OptiMem media (ThermoFisher 11058-021) supplemented with 2% fetal bovine serum were plated at 1×10^6 cells/mL and assay plates were spun at 1000 rpm for 30 sec and incubated at room temperature for 30 min. GC-A-mediated activation of cGMP production was measured using cGMP CisBio detection homogenous time-resolved florescence (HTRF) competition assay using labeled-cGMP in human GC-A-overexpressing HEK293 cells. 5 μL of d-2 acceptor was dispensed into each well followed by addition of 5 μL of Anti-cGMP Eu-Cryptate antibody donor and plates were spun at 1000 rpm for 30 sec and incubated in the dark at room temperature for 1 hr. HTRF florescence was read on the ClarioStar microplate reader (BMG). A 100% response was determined from wells in the absence of compound and presence of saturating concentration of ANP (10 nM), and 0) % response was determined from wells containing an EC20 concentration of ANP determined for each new lot of ANP. Concentration-response curves for test compounds were analyzed by […] analysis using GraphPad software to determine EC50 and Emax values.

[3] = system: Primary Human cardiomyocytes; assay: cGMP levels (ELISA) in human cardiomyocytes; format: cell-based; details: acetate salt, 1 or 10 μM, ANP (10^-10 M), vs vehicle
Method: Primary Human cardiomyocytes (HCMs: Catalog No. 6200, Lot No. 6288, PromoCell) were maintained and subcultured according to the manufacturer's protocols. Passage 5 was used in the study. Treatment buffer, Compound 3, Compound 1 and Compound 2 acetate salt, ANP, and vehicle were prepared as described above. Briefly, 5×10^5 of cells/well were grown in 6-well plates until 80 to 90% confluency and were then pretreated with vehicle or Compound 3, Compound 1 or Compound 2 at doses of 1 or 10 μM for 5 min at 37° C., then cells were treated with ANP (10^-10 M) for an additional 10 min at 37° C. Afterward, all cells were washed with PBS once and lysed with 0.1 M HCl at room temperature, and intracellular cGMP levels were measured in the lysate using a commercial cGMP ELISA kit (Enzo Life Sciences) with the acetylation method as instructed by the manufacturer.

SMILES	Kd [1] [µM]	EC50 ([2]; HEK293 GC-A cells) [µM]	EMax cGMP activities ([2]; HEK293 GC-A cells) [%]	binding for the GC-A receptor compared with Compound 3 and Compound 2 acetate salts ([1]; SPR)	Emax [2] [%]	potency in potentiating ANP-mediated cGMP generation (comparison between forms/enantiomers) ([2]; HEK293 GC-A cells)	cGMP generation in HCMs in the presence of ANP [3]
CN(C)CCN1CCC[C@@H](C(=O)Nc2nc3c(F)cc(F)cc3s2)C1 [Compound 2 acetate salt, (R)-N-(4,6-difluoro-1,3-benzothiazol-2-yl)-1-[2-(dimethylamino)ethyl]piperidine-3-carboxamide]	0.12	1.32	73.1				
CN(C)CCN1CCC[C@@H](C(=O)Nc2nc3c(F)cc(F)cc3s2)C1 [Compound 2 TFA salt, (R)-N-(4,6-difluorobenzo[d]thiazol-2-yl)-1-(2-(dimethylamino)ethyl) piperidine-3-carboxamide]		0.73			82.7		
CN(C)CCN1CCCC(C(=O)Nc2nc3c(F)cc(F)cc3s2)C1 (racemic) [Compound 3 TFA salt, N-(4,6-difluorobenzo[d]thiazol-2-yl)-1-(2-(dimethylamino)ethyl) piperidine-3-carboxamide]		0.57			95.8		

Compounds with a lower EC50 ([2]; HEK293 GC-A cells), results first:

Kd [1] [µM]	EC50 ([2]; HEK293 GC-A cells) [µM]	EMax cGMP activities ([2]; HEK293 GC-A cells) [%]	binding for the GC-A receptor compared with Compound 3 and Compound 2 acetate salts ([1]; SPR)	Emax [2] [%]	potency in potentiating ANP-mediated cGMP generation (comparison between forms/enantiomers) ([2]; HEK293 GC-A cells)	SMILES	cGMP generation in HCMs in the presence of ANP [3]
0.012	0.15		greater binding	81.5		CN(C)CCN1CCC[C@H](C(=O)Nc2nc3c(F)cc(F)cc3s2)C1 [Compound 1 acetate salt, (S)-N-(4,6-difluoro-1,3-benzothiazol-2-yl)-1-[2-(dimethylamino)ethyl]piperidine-3-carboxamide]	
	0.16	75.3				CN(C)CCN1CCC[C@H](C(=O)Nc2nc3c(F)cc(F)cc3s2)C1 [Compound 1 TFA salt, (S)-N-(4,6-difluorobenzo[d]thiazol-2-yl)-1-(2-(dimethylamino)ethyl) piperidine-3-carboxamide]	
0.176	0.32	84.0			more potent	CN(C)CCN1CCCC(C(=O)Nc2nc3c(F)cc(F)cc3s2)C1 (racemic) [Compound 3 acetate salt, N-(4,6-difluoro-1,3-benzothiazol-2-yl)-1-[2-(dimethylamino)ethyl]piperidine-3-carboxamide]	dose dependent increase
